pIC50: −log10 of the molar value.
How the values were obtained:
HCT-15 = assay: Cytotoxicity against human HCT15 cells by MTT assay; type: functional, cell-based
[1] = target: DNA topoisomerase 2-alpha (Homo sapiens) (UniProt P11388); assay: Inhibition of human topoisomerase 2-mediated relaxation of supercoiled pBR322 at 100 uM by agarose gel electrophoresis
MCF7 = assay: Cytotoxicity against human MCF7 cells by MTT assay; type: functional, cell-based
DU-145 = assay: Cytotoxicity against human DU145 cells by MTT assay; type: functional, cell-based
K562 = assay: Cytotoxicity against human K562 cells by MTT assay; type: functional, cell-based
[2] = target: T1, DNA topoisomerase 1 (Homo sapiens) (UniProt P11387); assay: Inhibition of human topoisomerase 1-mediated relaxation of supercoiled pBR322 at 100 uM by agarose gel electrophoresis
T1 sequence (whole entry): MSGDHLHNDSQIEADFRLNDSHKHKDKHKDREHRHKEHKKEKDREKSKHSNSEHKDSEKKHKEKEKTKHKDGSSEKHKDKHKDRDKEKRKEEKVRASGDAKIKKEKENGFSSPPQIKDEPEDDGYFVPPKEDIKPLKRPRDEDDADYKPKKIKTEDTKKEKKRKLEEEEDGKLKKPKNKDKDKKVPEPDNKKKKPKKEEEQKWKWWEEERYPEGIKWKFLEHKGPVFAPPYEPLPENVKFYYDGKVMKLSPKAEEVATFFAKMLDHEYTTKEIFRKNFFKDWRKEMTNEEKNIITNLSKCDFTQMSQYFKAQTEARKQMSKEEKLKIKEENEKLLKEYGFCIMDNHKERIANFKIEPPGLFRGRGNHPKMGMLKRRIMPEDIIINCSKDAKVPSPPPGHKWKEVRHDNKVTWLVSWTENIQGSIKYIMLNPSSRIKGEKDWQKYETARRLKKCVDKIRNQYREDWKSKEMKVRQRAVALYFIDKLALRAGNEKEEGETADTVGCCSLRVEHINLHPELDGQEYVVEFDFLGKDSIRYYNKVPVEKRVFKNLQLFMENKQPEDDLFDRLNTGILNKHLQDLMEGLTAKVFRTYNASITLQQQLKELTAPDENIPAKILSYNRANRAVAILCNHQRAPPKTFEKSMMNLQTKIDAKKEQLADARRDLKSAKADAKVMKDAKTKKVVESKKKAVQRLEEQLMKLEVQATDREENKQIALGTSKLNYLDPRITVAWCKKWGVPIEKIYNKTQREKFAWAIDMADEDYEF

[3] = target: DNA topoisomerase 2-alpha (Homo sapiens) (UniProt P11388); assay: Inhibition of human topoisomerase 2-mediated relaxation of supercoiled pBR322 at 20 uM by agarose gel electrophoresis

Sequence of DNA topoisomerase 2-alpha (Homo sapiens) (P11388 whole entry): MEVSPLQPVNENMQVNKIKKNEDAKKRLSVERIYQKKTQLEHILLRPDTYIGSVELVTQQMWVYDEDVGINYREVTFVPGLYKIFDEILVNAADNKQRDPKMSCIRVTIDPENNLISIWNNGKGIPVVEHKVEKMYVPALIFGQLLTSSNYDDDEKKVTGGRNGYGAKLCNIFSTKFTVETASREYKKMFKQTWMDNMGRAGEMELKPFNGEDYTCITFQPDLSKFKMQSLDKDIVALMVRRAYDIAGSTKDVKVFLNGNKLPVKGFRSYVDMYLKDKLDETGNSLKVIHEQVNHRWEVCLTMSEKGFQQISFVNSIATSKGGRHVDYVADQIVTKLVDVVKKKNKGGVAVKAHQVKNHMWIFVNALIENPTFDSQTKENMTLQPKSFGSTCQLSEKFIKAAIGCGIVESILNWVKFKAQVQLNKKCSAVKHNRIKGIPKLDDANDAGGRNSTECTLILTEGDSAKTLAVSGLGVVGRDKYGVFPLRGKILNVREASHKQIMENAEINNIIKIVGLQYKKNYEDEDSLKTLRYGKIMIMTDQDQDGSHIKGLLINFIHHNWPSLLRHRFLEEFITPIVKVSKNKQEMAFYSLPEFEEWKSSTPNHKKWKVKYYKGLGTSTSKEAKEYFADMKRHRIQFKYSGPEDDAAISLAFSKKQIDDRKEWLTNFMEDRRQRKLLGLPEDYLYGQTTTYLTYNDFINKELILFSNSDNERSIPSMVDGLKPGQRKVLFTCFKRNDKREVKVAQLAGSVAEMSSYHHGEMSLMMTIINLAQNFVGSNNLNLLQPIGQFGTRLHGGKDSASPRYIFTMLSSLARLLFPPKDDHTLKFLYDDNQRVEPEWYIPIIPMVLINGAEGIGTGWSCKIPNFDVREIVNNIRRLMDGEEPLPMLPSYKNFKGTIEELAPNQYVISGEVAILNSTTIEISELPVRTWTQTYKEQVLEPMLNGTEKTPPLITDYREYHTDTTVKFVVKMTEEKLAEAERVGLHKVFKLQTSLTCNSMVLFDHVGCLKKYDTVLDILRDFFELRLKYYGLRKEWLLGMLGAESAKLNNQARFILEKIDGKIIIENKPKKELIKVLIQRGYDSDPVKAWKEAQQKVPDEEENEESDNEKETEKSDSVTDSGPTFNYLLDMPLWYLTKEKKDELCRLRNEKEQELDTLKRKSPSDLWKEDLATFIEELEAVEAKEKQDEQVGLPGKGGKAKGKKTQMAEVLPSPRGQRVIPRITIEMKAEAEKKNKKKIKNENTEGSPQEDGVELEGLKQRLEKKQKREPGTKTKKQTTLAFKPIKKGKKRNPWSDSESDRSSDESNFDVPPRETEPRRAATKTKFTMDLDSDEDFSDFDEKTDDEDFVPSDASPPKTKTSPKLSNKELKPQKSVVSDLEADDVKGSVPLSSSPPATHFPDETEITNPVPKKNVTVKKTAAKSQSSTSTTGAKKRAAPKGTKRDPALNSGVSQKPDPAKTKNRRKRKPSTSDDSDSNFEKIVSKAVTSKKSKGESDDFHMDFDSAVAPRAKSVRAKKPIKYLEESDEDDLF

inhibition [1]	inhibition [2]	inhibition [3]	SMILES	pIC50 (HCT-15)	pIC50 (MCF7)	pIC50 (DU-145)	pIC50 (K562)
61.9%		38%	COc1cc([C@@H]2c3cc4c(cc3[C@@H](O[C@@H]3O[C@@H]5CO[C@@H](C)O[C@H]5[C@H](O)[C@H]3O)[C@H]3COC(=O)[C@H]23)OCO4)cc(OC)c1O [ETOPOSIDE]	5.69	5.70	5.84	5.92
30.1%	0%	14%	COc1ccc(C(=O)/C=C/c2ccc(OCC(O)CCl)cc2)cc1 (stereo not drawn)	4.69	4.54	< 4.30	4.54
33.5%	0%	19.3%	O=C(/C=C/c1ccc(OCC2CO2)cc1)c1ccc(OCC2CO2)cc1 (stereo not drawn)	4.73	5.41	< 4.30	5.14
34.9%	0%	16.3%	COc1ccc(/C=C/C(=O)c2ccc(OCC(O)CCl)cc2)cc1 (stereo not drawn)	4.69	4.73	< 4.30	4.79
28.8%	0%	17.6%	COc1ccc(/C=C/C(=O)c2ccc(OCC3CO3)cc2)cc1 (stereo not drawn)	4.57	4.93	4.36	4.55
22%	0%	15.2%	COc1ccc(C(=O)/C=C/c2ccc(OCC3CO3)cc2)cc1 (stereo not drawn)	4.52	4.96	4.43	4.48
28.5%	0%	14%	COc1cc(OCC2CO2)ccc1/C=C/C(=O)c1ccc(OCC2CO2)cc1 (stereo not drawn)	5.32	5.44	< 4.30	4.86

The next lines start with the compound.

SMILES	inhibition [1]	inhibition [2]	inhibition [3]	pIC50 (HCT-15)	pIC50 (MCF7)	pIC50 (DU-145)	pIC50 (K562)
O=C(/C=C/c1ccc(OCC2CS2)cc1)c1ccc(OCC2CS2)cc1 (stereo not drawn)	34.6%	0%	18%	4.91	4.66	< 4.30	4.87
COc1cccc2c1C(=O)c1c(O)c3c(c(O)c1C2=O)C[C@@](O)(C(=O)CO)C[C@@H]3O[C@H]1C[C@H](N)[C@H](O)[C@H](C)O1 [DOXORUBICIN]				5.90		5.76	5.88
COc1ccc(/C=C/C(=O)c2ccc(OCC3CS3)cc2OCC2CS2)cc1 (stereo not drawn)	61%	0%	20.8%	6.64	6.31	5.97	5.12
CC[C@@]1(O)C(=O)OCc2c1cc1n(c2=O)Cc2cc3ccccc3nc2-1 [CAMPTOTHECIN]				6.10	5.61	6.21	6.23
COc1ccc(/C=C/C(=O)c2ccc(OCC3CS3)cc2)cc1 (stereo not drawn)	31.6%	0%	14.8%	5.00	4.63	4.71	< 4.30
COc1ccc(C(=O)/C=C/c2ccc(OCC3CS3)cc2)cc1 (stereo not drawn)	31.6%	0%	15.5%	4.55	4.94	< 4.30	4.49
